Assay results from US11844794B2, “Pharmaceutical compositions” (ADEPTIO PHARMACEUTICALS LIMITED, priority 2017, dated 2023).

What was measured:
[1] = moisture-sorption analysis; type: physicochemical; conditions: for moisture uptake: 25° C.
Description: Moisture-sorption analysis was carried out using a Hiden IGA Sorp moisture-sorption analyser. […] The sample was then subjected to an isothermal (at 25° C.) adsorption scan from 40 to 90% relative humidity in steps of 10%. The sample was allowed to equilibrate to an asymptotic weight at each point for a maximum of four hours. […] An adsorption scan was then performed from 0 to 40% relative humidity inn steps of 10%. The sample was dried for two hours at 60° C. and 0% relative humidity, and the resulting solid was analysed by XRPD.

[2] = thermal gravimetric analysis (TGA) / thermal stability
Description: Differential scanning calorimetry (DSC) was carried out on the sample “as is” using a Mettler DSC1 instrument. The sample was weighed I an aluminium pan, covered with a pierced lid, and then crimped and analysed from 30-300° C. at 10° C./minute.
Thermal gravimetric analysis was performed on the sample “as is” using a Mettler 851^e TGA instrument. The sample was weighed in an alumina crucible and analysed from 30-300° C. at 10° C./minute.

VMAT2 = molecular target: T1, VMAT2 (Homo sapiens, UniProt Q05940); assay: % VMAT2 blocking by PET scan in human volunteers; type: in vivo
T1 construct: from tissue; host or cells: living human volunteers (in vivo PET scan)
Text: Complete blocking of the VMAT2 proteins is considered undesirable as this can lead to unwanted side effects, such as Parkinsonism. […] The levels of VMAT2 blocking can be determined by competitive binding studies using Positron Emission Tomography (PET). By co-administering a radioactive ligand with the compound of interest at various concentrations, the proportion of binding sites occupied can be determined (see for example, Matthews et al., “Positron emission tomography molecular imaging for drug development”, Br. J. Clin. Pharmacol., 73:2, 175-186).
In four of the volunteers, blood sample were taken at 30, 60, 120 and 180 minutes after drug administration. Blood samples were not taken from the fifth volunteer. At 60 minutes after drug administration, PET scans were initiated and these were stopped at 120 minutes after drug administration.
The experiment was carried out at dosages of 7.5 mg, 15 mg and 22.5 mg.

T1 sequence (Q05940 whole entry): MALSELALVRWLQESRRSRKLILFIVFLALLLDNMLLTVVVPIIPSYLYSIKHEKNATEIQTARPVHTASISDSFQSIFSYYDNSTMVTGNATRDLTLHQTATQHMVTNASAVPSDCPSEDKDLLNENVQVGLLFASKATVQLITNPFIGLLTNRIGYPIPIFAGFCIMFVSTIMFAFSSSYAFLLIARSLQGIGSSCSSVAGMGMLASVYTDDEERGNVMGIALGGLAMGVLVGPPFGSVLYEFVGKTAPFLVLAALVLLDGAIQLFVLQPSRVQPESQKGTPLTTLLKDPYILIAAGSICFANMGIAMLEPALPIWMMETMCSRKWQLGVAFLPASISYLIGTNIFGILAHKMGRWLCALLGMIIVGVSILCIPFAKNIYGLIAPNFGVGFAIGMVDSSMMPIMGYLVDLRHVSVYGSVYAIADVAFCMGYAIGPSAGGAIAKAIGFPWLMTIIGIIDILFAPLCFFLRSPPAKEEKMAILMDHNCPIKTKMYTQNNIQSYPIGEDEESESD

Q: Which results are given for `COc1cc2c(cc1OC)[C@H]1C[C@@H](O)[C@H](CC(C)C)CN1CC2.O=C(O)CCC(=O)O` [(+)-α-dihydrotetrabenazine succinate]?
A: moisture uptake ([1]; 60% relative humidity): 0.6 weight %; moisture uptake ([1]; 90% relative humidity): 1.3 weight %; XRPD pattern after moisture sorption studies ([1]; dried at 60° C. and 0% relative humidity): No change; hygroscopicity ([1]; gravimetric moisture-sorption): slightly hygroscopic; TGA weight loss ([2]; below 150° C.): No weight loss; thermal stability ([2]; from DSC and TGA): good thermal stability

Q: With `COc1cc2c(cc1OC)[C@H]1C[C@@H](O)[C@H](CC(C)C)CN1CC2` [(+)-α-dihydrotetrabenazine, (2R,3R,11bR)-3-isobutyl-9,10-dimethoxy-1,3,4,6,7,11b-hexahydro-2H-pyrido[2,1,a]isoquinolin-2-01] as the compound, how does the “% VMAT2 blocking” value (VMAT2; heavier individuals, doses as low as 7.5 mg) read?
A: at least 50%

Q: What about the “% VMAT2 blocking” value (VMAT2; subject 1 (112 kg), 7.5 mg oral, PET 60-120 minutes after administration) of the same compound?
A: 54%

Q: And the “% VMAT2 blocking” value (VMAT2; subject 1 (112 kg), 15 mg oral, PET 60-120 minutes after administration)?
A: 73%

Q: And the “% VMAT2 blocking” value (VMAT2; subject 1 (112 kg), 22.5 mg oral, PET 60-120 minutes after administration)?
A: 75%

Q: And the “% VMAT2 blocking” value (VMAT2; subject 2 (76 kg), 7.5 mg oral, PET 60-120 minutes after administration)?
A: 73%

Q: And the “% VMAT2 blocking” value (VMAT2; subject 2 (76 kg), 15 mg oral, PET 60-120 minutes after administration)?
A: 83%

Q: What about the “% VMAT2 blocking” value (VMAT2; subject 2 (76 kg), 22.5 mg oral, PET 60-120 minutes after administration) of the same compound?
A: 82%

Q: And the “% VMAT2 blocking” value (VMAT2; subject 3 (129 kg), 7.5 mg oral, PET 60-120 minutes after administration)?
A: 62%

Q: And the “% VMAT2 blocking” value (VMAT2; subject 3 (129 kg), 15 mg oral, PET 60-120 minutes after administration)?
A: 69%

Q: And the “% VMAT2 blocking” value (VMAT2; subject 3 (129 kg), 22.5 mg oral, PET 60-120 minutes after administration)?
A: 74%

Q: What about the “% VMAT2 blocking” value (VMAT2; subject 4 (59 kg), 7.5 mg oral, PET 60-120 minutes after administration) of the same compound?
A: 84%

Q: What about the “% VMAT2 blocking” value (VMAT2; subject 4 (59 kg), 15 mg oral, PET 60-120 minutes after administration) of the same compound?
A: 89%

Q: What about the “% VMAT2 blocking” value (VMAT2; subject 5 (91 kg), 7.5 mg oral, PET 60-120 minutes after administration) of the same compound?
A: 73%

Q: What about the “% VMAT2 blocking” value (VMAT2; subject 5 (91 kg), 15 mg oral, PET 60-120 minutes after administration) of the same compound?
A: 79%

Q: And the “% VMAT2 blocking” value (VMAT2; subject 5 (91 kg), 22.5 mg oral, PET 60-120 minutes after administration)?
A: 82%
